Laboratory results reported in US20120101110A1, “Diaza-spiro[5.5]undecanes” (priority 2010, published 2012).

Experiments:
human orexin 1 receptors [1] = target: T1, human orexin 1 receptors (Homo sapiens, UniProt O43613); assay: Radioligand binding assay ([3H]-SB649868 competition), hOx1R; details: competition with about 1 nM [3H]-SB649868; CHO or HEK cell membranes expressing human orexin 1 receptor
T1 sequence (O43613 1-425): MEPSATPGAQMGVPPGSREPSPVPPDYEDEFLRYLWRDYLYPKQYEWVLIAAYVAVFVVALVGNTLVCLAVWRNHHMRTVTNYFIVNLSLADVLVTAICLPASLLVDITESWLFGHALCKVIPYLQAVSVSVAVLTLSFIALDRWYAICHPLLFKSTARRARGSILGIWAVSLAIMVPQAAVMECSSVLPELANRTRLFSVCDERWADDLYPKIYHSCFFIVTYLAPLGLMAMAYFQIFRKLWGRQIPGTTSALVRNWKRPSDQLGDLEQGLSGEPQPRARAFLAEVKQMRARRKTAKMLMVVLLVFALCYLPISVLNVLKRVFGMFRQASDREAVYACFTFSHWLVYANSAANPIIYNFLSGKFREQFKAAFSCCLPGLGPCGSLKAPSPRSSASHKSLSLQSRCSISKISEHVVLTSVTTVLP
Method in brief: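 Membranes from hOx1R-expressing cells incubated 1 h at room temperature with about 1 nM [3H]-SB649868 and test compound, in triplicate. Buffer was 10 mM HEPES pH 7.5, 0.5% BSA, 5 mM MgCl2, 1 mM CaCl2, 0.05% tween; 10 μM almorexant defined non-specific binding. Filtration then counting of bound radioactivity; values reported as Kd.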

human orexin 2 receptors [2] = target: T2, human orexin 2 receptors (Homo sapiens, UniProt O43614); assay: Calcium accumulation in cells (FLIPR), hOx2R; assay type: cell-based; details: cells expressing human orexin 2 receptor; inhibition of orexin A-induced calcium accumulation; Cheng and Prusoff correction
T2 sequence (O43614 1-444): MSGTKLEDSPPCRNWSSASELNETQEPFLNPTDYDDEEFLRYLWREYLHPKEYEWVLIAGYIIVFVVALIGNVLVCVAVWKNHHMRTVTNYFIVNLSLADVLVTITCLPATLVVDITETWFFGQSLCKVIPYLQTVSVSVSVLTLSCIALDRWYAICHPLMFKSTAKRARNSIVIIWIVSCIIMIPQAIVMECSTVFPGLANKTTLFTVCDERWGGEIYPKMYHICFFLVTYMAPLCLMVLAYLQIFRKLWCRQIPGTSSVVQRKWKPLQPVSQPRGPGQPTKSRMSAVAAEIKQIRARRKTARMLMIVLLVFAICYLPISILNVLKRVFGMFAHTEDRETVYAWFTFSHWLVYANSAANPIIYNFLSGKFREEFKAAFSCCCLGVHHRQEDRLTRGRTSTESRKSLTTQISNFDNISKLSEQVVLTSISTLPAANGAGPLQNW
Description: (§1) Cells expressing human orexin 1 or human orexin 2 receptors, were seeded at 8,000 cells/well in 384 well black-walled clear bottom, poly-D-lysine coated plates. After 24 h, the medium was removed and cells were washed once with phosphate buffered saline and serum-deprived overnight in assay buffer (130 mM NaCl, 5.4 mM KCl, 1.8 mM CaCl2, 0.8 mM MgSO4, 0.9 mM NaH2PO4, 25 mM glucose, 20 mM HEPES, pH 7.4) containing bovine serum albumin (1% w/v).
On the day of the experiment, the cells seeded in black plates were treated with assay buffer containing the Ca^2+sensitive fluorescent dye Fluo-4-AM (2 μM), and probenecid (0.1 mM). After 1 h plates were washed twice with, and resuspended in, assay buffer containing probenecid (0.1 mM) using a multi plate washer. […] Fluorescence measurements were then continued every 1 S for 120 S followed by every 4 S for 240 S.
The measurements were typically made in two sequences:
(§2) Compounds of formula I were tested usually in a concentration range from 10^−9 M to 10^−5 M. In the second round, performed one hour later (to allow for equilibration), Orexin A was tested either in the absence (calibration curves, Orexin A agonist controls) or in the presence of compounds of formula I to determine antagonism.

human orexin 2 receptors [3] = target: T2, human orexin 2 receptors; assay: Radioligand binding assay ([3H]-SB649868 competition), hOx2R; details: competition with about 1 nM [3H]-SB649868; CHO or HEK cell membranes expressing human orexin 2 receptor; read-out: binding hOx2R Kd
Method in brief: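 Membranes were incubated 1 h at room temperature in 10 mM HEPES pH 7.5 with 0.5% BSA, 5 mM MgCl2, 1 mM CaCl2 and 0.05% Tween, with about 1 nM [3H]-SB649868 and test compounds in triplicate. Non-specific binding was defined with 10 μM almorexant, and bound radioactivity was counted.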

human orexin 1 receptors [4] = target: T1, human orexin 1 receptors; assay: Calcium accumulation in cells (FLIPR), hOx1R
Description: as §1
On the day of the experiment, the cells seeded in black plates were treated with assay buffer containing the Ca^2+sensitive fluorescent dye Fluo-4-AM (2 μM), and probenecid (0.1 mM). After 1 h plates were washed twice with, and resuspended in, assay buffer containing probenecid (0.1 mM) using a multi plate washer. The plates were placed into a FLIPR II (Fluorometric Imaging Plate Reader, Molecular Devices, Sunnyvale, Calif., USA) and baseline fluorescence (fluorescence light units, FLU) was measured (5 measurements, 2 S each; laser excitation 488 nm at 0.6-1 W, CCD camera exposure 0.4 s) before addition of buffer alone (basal) or containing test compounds (either compound of formula I alone, agonist alone or agonist in the presence of various concentrations of compounds of formula I). Fluorescence measurements were then continued every 1 S for 120 S followed by every 4 S for 240 S.
as §2
Inhibition data is expressed in Table 2 as Ki [μM], converted by the Cheng and Prusoff correction (Ki=IC50/1+(L/EC50)), where IC50 is the 50% inhibition value determined in concentration response inhibition curves, EC50 is the half maximal activation concentration determined for orexin A in concentration response curves and L is the concentration of orexin A used in inhibition experiments performed in with a submaximal concentration of orexin A in the presence of up to 8 increasing concentrations of compound of formula I. Inhibition data is also expressed in Table 2 as % inhibition value measured at a concentration of 10 μM of selected compounds of formula I.

SMILES	Kd (human orexin 1 receptors [1])	Ki (human orexin 2 receptors [2])	Kd (human orexin 2 receptors [3])	Ki (human orexin 1 receptors [4])
COc1cncc(-c2nn(C)nc2CN2CCCC3(CCN(c4nc(C)cc(C)n4)CC3)C2=O)c1 [Example 121, 9-(4,6-dimethylpyrimidin-2-yl)-2-((5-(5-methoxypyridin-3-yl)-2-methyl-2H-1,2,3-triazol-4-yl)methyl)-2,9 diazaspiro[5.5]undecan-1-one]	196 nM	2 nM	15 nM	315 nM
COCc1cccc(-c2ocnc2CN2CCCC3(CCN(c4nc(C)cc(C)n4)CC3)C2=O)c1 [Example 123, 9-(4,6-dimethylpyrimidin-2-yl)-2-((5-(3-(methoxymethyl)phenyl)oxazol-4-yl)methyl)-2,9-diazaspiro[5.5]undecan-1-one]	3240 nM	18 nM	71 nM	1780 nM
COCc1cccc(-c2oc(C)nc2CN2CCCC3(CCN(c4nc(C)cc(C)n4)CC3)C2=O)c1 [Example 124, 9-(4,6-dimethylpyrimidin-2-yl)-2-((5-(3-(methoxymethyl)phenyl)-2-methyloxazol-4-yl)methyl)-2,9 diazaspiro[5.5]undecan-1-one]	368 nM	1.2 nM	19 nM	101 nM
